Drawing on ChEMBL document CHEMBL1139787, “Synthetic tyrosyl gallate derivatives as potent melanin formation inhibitors” (Bioorg Med Chem Lett, 2007), this text covers IC50 for six compounds.

Test [1] in a line: DPPH radical scavenging activity after 30 mins. It is filed as functional.
Test [2] is described as follows: Inhibition of melanin formation in Melan-a cells after 5 days. Particulars: 120 h. It is filed as functional, cell-based.
A short description of test [3]: Cytotoxicity againt Melan-a cells by MTT assay. It is filed as cell-based. Conditions: Mus musculus.
For test [4], the target named is Tyrosinase (Mus musculus) (UniProt P11344). In words: Inhibition of tyrosinase in Melan-a cells.
Sequence of Tyrosinase (Mus musculus) (P11344 whole entry, looked up): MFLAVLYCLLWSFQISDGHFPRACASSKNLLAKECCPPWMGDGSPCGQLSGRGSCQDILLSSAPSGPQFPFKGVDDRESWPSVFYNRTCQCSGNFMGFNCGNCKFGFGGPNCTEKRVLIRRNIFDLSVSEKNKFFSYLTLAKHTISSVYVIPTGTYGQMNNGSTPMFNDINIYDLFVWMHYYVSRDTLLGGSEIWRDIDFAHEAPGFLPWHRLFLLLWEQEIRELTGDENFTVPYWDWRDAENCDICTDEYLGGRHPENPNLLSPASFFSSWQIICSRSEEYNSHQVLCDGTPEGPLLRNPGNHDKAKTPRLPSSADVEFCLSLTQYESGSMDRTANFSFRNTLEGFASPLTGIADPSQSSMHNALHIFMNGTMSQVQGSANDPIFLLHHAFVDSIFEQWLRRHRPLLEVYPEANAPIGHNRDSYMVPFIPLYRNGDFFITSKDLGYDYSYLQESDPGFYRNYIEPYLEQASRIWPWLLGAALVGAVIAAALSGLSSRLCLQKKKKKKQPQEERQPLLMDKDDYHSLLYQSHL

For the compound `O=C1O[C@H]([C@@H](O)CO)C(O)=C1O` [ASCORBIC ACID], half-maximal inhibition in test [1] (IC50) was put at 13.6 µM.
Turning to `O=C(OCCc1cccc(O)c1)c1cc(O)c(O)c(O)c1`, the IC50 in test [2] was 8.94 µM; in test [3], greater than 50 µM; in test [1] it was 7.78 µM; in test [4], 15.2 µM.
As to `O=C(OCCc1ccc(O)cc1)c1cc(O)c(O)c(O)c1`, the half-maximal inhibitory concentration (IC50) is greater than 10 µM in test [3], 7.52 µM in test [1] and 4.93 µM in test [4].
For the compound `OC[C@H]1O[C@@H](Oc2ccc(O)cc2)[C@H](O)[C@@H](O)[C@@H]1O` [ARBUTIN], the IC50 in test [2] is 118 µM; in test [3] it was greater than 1500 µM.
Take `O=C(OCCc1ccccc1O)c1cc(O)c(O)c(O)c1`: the concentration for half-maximal inhibition (IC50) in test [2] was 13.7 µM; in test [3], greater than 50 µM; in test [1], 8.31 µM; in test [4] it was 14.5 µM.
In test [1], `Cc1c(C)c2c(c(C)c1O)CC[C@@](C)(CCCC(C)CCCC(C)CCCC(C)C)O2` (single isomer, unassigned) [ALPHA-TOCOPHEROL] came in with a half-inhibitory concentration (IC50) of 9.89 µM.

The IC50 is the concentration that gives 50% inhibition.
